Source: patent US20100021895A1, “Vectors for Inducing Homozygous Mutations and Methods of Using Same” (priority 2006, published 2010)

Test system: HSV thymidine kinase (TK) gene in cells containing an entrapment mutation in the Hesx1 gene
Test: TK gene loss, selection in gancyclovir
Assay type: cell-based, mouse
Conditions: Table 2
Procedure: Two types of experiments were performed to assess whether frequencies of LOH were transiently or stably elevated following carcinogen exposure. First, cells were treated with MNU and HU as before and the percentages of cells having undergone LOH were determined by selection in 2.0 mg/ml G418 at various times thereafter. Over 90% of the total LOH was induced within 24 hours of MNU and HU exposure, and only minimal additional LOH occurred subsequently (FIG. 14). Second, it was asked whether LOH frequencies at a second locus were elevated in cells having undergone LOH at the entrapment locus. For this, a Herpes Simplex Virus thymidine kinase (TK) gene was introduced into cells containing an entrapment allele of the Hesx1 gene and frequencies of TK gene loss were measured by selection in gangcyclovir. These studies utilized the cell line containing the TK gene (C8TK1) and derivatives of C8TK1 that had undergone LOH at the entrapment locus either spontaneously (C8TK1sN) or after treatment with either MNU (C8TKmN) or HU (C8TK1hN). […] Moreover, the stability of the TK gene following carcinogen treatment was largely unaffected by prior selection for LOH involving the entrapment locus. Similar results were also obtained with a second TK-containing line (C8TK2, Table 4). Together these experiments indicate that carcinogen-induced LOH results from an acute response rather than from a stably altered cellular phenotype.
Serially diluted cells were plated onto 150 mm plates containing drug-free media and allowed to attach overnight. Unattached cells were removed and media containing the indicated concentrations of methyl-nitrosourea, hydroxyurea, ethidium bromide, doxorubicin, methotrexate, diepoxybutane, or mitomycin C was put onto cells for 4 hours (or cells were exposed to ultraviolet light in the absence of media and allowed to recover in drug-free media for 4 hours). Cells were then rinsed twice with drug-free media and selection media containing 0.0, 0.3, or 2.0 mg/ml G418 was put onto cells. After 12 days of selection, the number of colonies surviving was counted and the frequency of colony formation was determined by dividing the number of colonies obtained from 2.0 mg/ml G418 selection to that obtained from parallel experiments with 0.3 mg/ml G418 selection. TK gene loss was assessed following selection in media containing 2 μg/ml gancyclovir.
Table 2. […] The HSV thymidine kinase (TK) gene was introduced into cells containing an entrapment mutation in the Hesx1 gene. A TK expressing (TK^+) clone (C8TK1) was used to select for cells that had undergone LOH at the entrapment locus (EL) spontaneously (C8TK1sN) or following treatment with HU (C8TK1hN) or MNU (C8TK1mN). The frequencies of TK gene loss were compared in cells with and without prior selection for LOH at the entrapment locus and the differences were expressed as the indicated ratios.
Table 4. Carcinogen-induced LOH does generate genetically unstable cells. The HSV thymidine kinase (TK) gene was introduced into cells containing an entrapment mutation in the Hesx1 gene. A TK expressing (TK+) clone (C8TK2) was used to select for cells that had undergone LOH at the entrapment locus (EL) spontaneously (C8TK2sN) or following treatment with HU (C8TK2hN) or MNU (C8TK2mN). The frequencies of spontaneous TK gene loss (Treatment=none) or TK gene loss following treatment with HU or MNU were compared in cells with (EL^−/−) and without prior selection for LOH (EL^+/+) at the entrapment locus and the differences were expressed as the indicated ratios.

Row | Compound | Freq. TK loss (clone C8TK1mN (EL LOH induced by MNU), Treatment MNU) | Freq. TK loss (clone C8TK1mN (EL LOH induced by MNU, TK+ EL−/−), Treatment none) | Freq. TK loss (clone C8TK1sN (Spont. EL LOH), Treatment MNU) | Ratio of Freq. TK loss (C8TK1sN and C8TK1hN, Treatment HU) | Freq. TK loss (clone C8TK1hN (EL LOH induced by HU), Treatment HU) | Freq. TK loss (clone C8TK1hN (EL LOH induced by HU, TK+ EL−/−), Treatment none) | Freq. TK loss (clone C8TK1sN (Spont. EL LOH), Treatment HU)
1 | CN(N=O)C(N)=O [MNU, methyl-nitrosourea] | 4.7 × 10^−4 | 1.4 × 10^−5 | 2.6 × 10^−4 |  |  |  | 
2 | NC(=O)NO [HU, hydroxyurea] |  |  |  | 1.7 | 3.9 × 10^−4 | 8.4 × 10^−5 | 2.3 × 10^−4
